Measurements taken from the NIST ThermoML archive (doi:10.1021/acs.jced.8b00554).

Assay: xn = mol fraction of the nth substance listed
Details: Liquid, Vibrating tube method

CCCCCCCCC [nonane] + CCCO
mass density [kg/m3]
Details	343.15 K	353.15 K
100 kPa, x2 = 0.1231	–	666.99
100 kPa, x2 = 0.2315	–	669.25
100 kPa, x2 = 0.3229	–	671.68
100 kPa, x2 = 0.4272	–	676.17
100 kPa, x2 = 0.7021	–	697.1
100 kPa, x2 = 0.8941	–	723.67
1000 kPa, x2 = 0.3229	–	672.91
1000 kPa, x2 = 0.4272	–	677.15
1000 kPa, x2 = 0.7021	–	697.4
1010 kPa, x2 = 0.1231	677.59	667.83
1010 kPa, x2 = 0.2315	–	670.69
1010 kPa, x2 = 0.4272	689.57	–
1010 kPa, x2 = 0.7021	711.27	–
1010 kPa, x2 = 0.8941	737.45	724.26
1020 kPa, x2 = 0.3229	684.46	–
2000 kPa, x2 = 0.1231	–	668.99
2000 kPa, x2 = 0.2315	–	671.87
2000 kPa, x2 = 0.3229	685.59	–
2010 kPa, x2 = 0.1231	678.71	–
2010 kPa, x2 = 0.2315	682.42	–
2010 kPa, x2 = 0.4272	690.68	678.31
2010 kPa, x2 = 0.7021	712.38	698.58
2010 kPa, x2 = 0.8941	738.5	–
2020 kPa, x2 = 0.3229	–	674.1
2020 kPa, x2 = 0.8941	–	725.38
3000 kPa, x2 = 0.3229	686.69	–
3000 kPa, x2 = 0.4272	691.79	–
3000 kPa, x2 = 0.7021	713.46	–
3010 kPa, x2 = 0.1231	679.8	–
3010 kPa, x2 = 0.2315	–	673.01
3010 kPa, x2 = 0.3229	–	675.25
3010 kPa, x2 = 0.4272	–	679.49
3010 kPa, x2 = 0.7021	–	699.75
3010 kPa, x2 = 0.8941	739.56	726.49
3020 kPa, x2 = 0.1231	–	670.15
3020 kPa, x2 = 0.2315	683.53	–
4000 kPa, x2 = 0.4272	–	680.67
4010 kPa, x2 = 0.1231	–	671.29
4010 kPa, x2 = 0.2315	684.63	–
4010 kPa, x2 = 0.3229	687.78	676.42
4010 kPa, x2 = 0.7021	714.57	700.94
4010 kPa, x2 = 0.8941	–	727.63
4020 kPa, x2 = 0.1231	680.88	–
4020 kPa, x2 = 0.2315	–	674.2
4020 kPa, x2 = 0.4272	692.9	–
4020 kPa, x2 = 0.8941	740.61	–
5000 kPa, x2 = 0.1231	681.97	–
5000 kPa, x2 = 0.4272	–	681.83
5000 kPa, x2 = 0.7021	715.67	–
5010 kPa, x2 = 0.1231	–	672.43
5010 kPa, x2 = 0.2315	–	675.32
5010 kPa, x2 = 0.3229	688.88	–
5010 kPa, x2 = 0.4272	694	–
5010 kPa, x2 = 0.7021	–	702.12
5010 kPa, x2 = 0.8941	741.67	728.78
5020 kPa, x2 = 0.2315	685.69	–
5020 kPa, x2 = 0.3229	–	677.57
6000 kPa, x2 = 0.1231	–	673.56
6000 kPa, x2 = 0.4272	–	683.02
6010 kPa, x2 = 0.1231	683.04	–
6010 kPa, x2 = 0.2315	–	676.43
6010 kPa, x2 = 0.3229	689.97	678.73
6010 kPa, x2 = 0.4272	695.09	–
6010 kPa, x2 = 0.7021	716.75	703.28
6010 kPa, x2 = 0.8941	–	729.91
6020 kPa, x2 = 0.2315	686.75	–
6020 kPa, x2 = 0.8941	742.73	–
7000 kPa, x2 = 0.2315	–	677.57
7000 kPa, x2 = 0.3229	691.04	–
7000 kPa, x2 = 0.8941	743.78	–
7010 kPa, x2 = 0.2315	687.82	–
7010 kPa, x2 = 0.3229	–	679.88
7010 kPa, x2 = 0.4272	696.18	–
7010 kPa, x2 = 0.8941	–	731.05
7020 kPa, x2 = 0.1231	684.1	674.7
7020 kPa, x2 = 0.4272	–	684.19
7020 kPa, x2 = 0.7021	717.84	704.46
8000 kPa, x2 = 0.2315	688.91	–
8000 kPa, x2 = 0.3229	–	681.03
8000 kPa, x2 = 0.7021	–	705.61
8000 kPa, x2 = 0.8941	744.82	–
8010 kPa, x2 = 0.1231	–	675.84
8010 kPa, x2 = 0.3229	692.11	–
8010 kPa, x2 = 0.4272	697.28	685.36
8010 kPa, x2 = 0.8941	–	732.17
8020 kPa, x2 = 0.1231	685.16	–
8020 kPa, x2 = 0.2315	–	678.73
8020 kPa, x2 = 0.7021	718.92	–
9000 kPa, x2 = 0.1231	–	676.94
9000 kPa, x2 = 0.2315	–	679.85
9010 kPa, x2 = 0.1231	686.2	–
9010 kPa, x2 = 0.2315	689.96	–
9010 kPa, x2 = 0.3229	693.2	682.18
9010 kPa, x2 = 0.4272	–	686.5
9010 kPa, x2 = 0.7021	–	706.79
9010 kPa, x2 = 0.8941	745.86	733.3
9020 kPa, x2 = 0.4272	698.35	–
9020 kPa, x2 = 0.7021	720.01	–
10000 kPa, x2 = 0.2315	690.99	680.95
10000 kPa, x2 = 0.4272	–	687.67
10000 kPa, x2 = 0.7021	721.05	–
10000 kPa, x2 = 0.8941	746.88	–
10010 kPa, x2 = 0.1231	687.25	678.03
10010 kPa, x2 = 0.3229	694.26	683.34
10010 kPa, x2 = 0.7021	–	707.93
10010 kPa, x2 = 0.8941	–	734.42
10020 kPa, x2 = 0.4272	699.44	–
11000 kPa, x2 = 0.3229	695.31	–
11000 kPa, x2 = 0.4272	700.47	–
11010 kPa, x2 = 0.1231	688.29	–
11010 kPa, x2 = 0.7021	722.11	–
11020 kPa, x2 = 0.2315	692.04	–
11020 kPa, x2 = 0.8941	747.91	–
12000 kPa, x2 = 0.3229	696.36	–
12010 kPa, x2 = 0.1231	689.31	–
12010 kPa, x2 = 0.2315	693.08	–
12010 kPa, x2 = 0.4272	701.53	–
12010 kPa, x2 = 0.8941	748.9	–
12020 kPa, x2 = 0.7021	723.13	–
13010 kPa, x2 = 0.4272	702.56	–
13010 kPa, x2 = 0.8941	749.87	–
13020 kPa, x2 = 0.1231	690.32	–
13020 kPa, x2 = 0.2315	694.1	–
13020 kPa, x2 = 0.3229	697.39	–
13020 kPa, x2 = 0.7021	724.18	–
14000 kPa, x2 = 0.1231	691.3	–
14000 kPa, x2 = 0.3229	698.41	–
14000 kPa, x2 = 0.8941	750.86	–
14010 kPa, x2 = 0.2315	695.1	–
14010 kPa, x2 = 0.7021	725.19	–
14020 kPa, x2 = 0.4272	703.57	–
15010 kPa, x2 = 0.1231	692.28	–
15010 kPa, x2 = 0.4272	704.56	–
15010 kPa, x2 = 0.7021	726.16	–
15010 kPa, x2 = 0.8941	751.83	–
15020 kPa, x2 = 0.2315	696.09	–
15020 kPa, x2 = 0.3229	699.39	–
16000 kPa, x2 = 0.8941	752.78	–
16010 kPa, x2 = 0.1231	693.22	–
16010 kPa, x2 = 0.7021	727.16	–
16020 kPa, x2 = 0.2315	697.06	–
16020 kPa, x2 = 0.3229	700.38	–
16020 kPa, x2 = 0.4272	705.54	–
17000 kPa, x2 = 0.1231	694.17	–
17000 kPa, x2 = 0.3229	701.35	–
17000 kPa, x2 = 0.4272	706.5	–
17010 kPa, x2 = 0.7021	728.12	–
17020 kPa, x2 = 0.2315	698.04	–
17020 kPa, x2 = 0.8941	753.71	–
18010 kPa, x2 = 0.1231	695.1	–
18010 kPa, x2 = 0.2315	698.96	–
18010 kPa, x2 = 0.7021	729.04	–
18020 kPa, x2 = 0.3229	702.27	–
18020 kPa, x2 = 0.4272	707.45	–
18020 kPa, x2 = 0.8941	754.62	–
19000 kPa, x2 = 0.2315	699.84	–
19000 kPa, x2 = 0.3229	703.2	–
19000 kPa, x2 = 0.7021	729.96	–
19000 kPa, x2 = 0.8941	755.52	–
19010 kPa, x2 = 0.1231	695.98	–
19010 kPa, x2 = 0.4272	708.36	–
20000 kPa, x2 = 0.4272	709.29	–
20010 kPa, x2 = 0.1231	696.86	–
20010 kPa, x2 = 0.2315	700.72	–
20010 kPa, x2 = 0.3229	704.07	–
20010 kPa, x2 = 0.7021	730.88	–
20020 kPa, x2 = 0.8941	756.41	–
